Test results taken from patent US8338565B2, “Macrocyclic compounds for inhibition of tumor necrosis factor alpha” (Ensemble Therapeutics Corporation, priority 2008, dated 2012).
Like-named read-outs stand apart in the source and are kept apart here. Bridge positions count the residues as written; N and C are the ends. Square brackets hold non-standard residues; d marks the D form. Peptide text beside a SMILES is read from it. Phe(4-COOH) = N[C@@H](Cc1ccc(C(=O)O)cc1)C(=O)O; Bip = N[C@@H](Cc1ccc(-c2ccccc2)cc1)C(=O)O; d(hPhe) = N[C@H](CCc1ccccc1)C(=O)O; βAla = NCCC(=O)O

Key:
[1] = biological target: T1, TNFα / TNFα receptor (TNFα R1/Fc) (Homo sapiens, UniProt P01375); test: Inhibition of binding of TNFα to the TNFα receptor (plate ELISA competition); conditions: Table 2
T1 construct: purchased R&D Systems
T1 sequence (P01375 77-233 limits assumed, species assumed): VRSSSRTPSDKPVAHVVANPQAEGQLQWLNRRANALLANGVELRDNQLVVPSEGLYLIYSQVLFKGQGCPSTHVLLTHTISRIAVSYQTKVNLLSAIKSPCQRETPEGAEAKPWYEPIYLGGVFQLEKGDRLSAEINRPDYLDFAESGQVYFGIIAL
In short: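 Compound dilutions were preincubated 30 min at RT with 8.33 nM TNFα R1/Fc in PBST with 2% DMSO, then added to wells coated with 15 nM TNFα for 30 min. Bound receptor was detected with HRP anti-human Fc and TMB, read as A450.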

[2] = tested on: TNF-α (degradation of IkB in HeLa cells or A431 cells); test: Human cell-based assay: inhibition of TNF-α induced degradation of IkB; conditions: for inhibition at 5 µM: read-out: Inhibition at Various Compound Concentrations, 5 μM; for inhibition at 10 µM: read-out: Inhibition at Various Compound Concentrations, 10 μM
Description: We used a human cell-based assay to determine the TNF-α antagonistic activity of the compounds of this invention based upon the ability of the compounds to inhibit the degradation of IkB in those cells. The assay was performed on either HeLa cells or A431 cells.
On Day 1, wells of a 24-well tissue culture plate were seeded with cells that had been harvested from cultures in T-75 flasks by standard trypsin/EDTA treatment. The harvested cells were suspended in EMEM/10% FBS/P/S (100,000 HeLa cells/mL or 200,000 A431 cells/mL) and 1 mL aliquots were placed into each well. The cells were incubated overnight at 37° C. in a humidified CO2 incubator. On day 2, the cells were approximately 95% confluent.
Test and control compounds were diluted to a 1 mM solution by dilution in DMSO. The assay was run in Costar tubes. Into each tube was placed 2.5 or 5.0 μL of test compound (for testing 5 μM and 10 μM concentrations, respectively), 2.5 μL of 100× TNF-α solution (200 ng/mL TNF-α in EMEM containing 1μg/mL cycloheximide) and, for those tubes containing 2.5 μL of compound, an additional 2.5 μL of DMSO. To each tube was then added 0.5 mL of EMEM containing 1μg/mL cycloheximide. Negative control tubes contained either a) no compound, or b) no TNF-α. Tubes were then incubated for 30 minutes at room temperature.
Once incubation had begun, the media was aspirated from the cells in the 24-well plates. Sufficient EMEM/10% FBS/P/S containing 1 ug/mL cycloheximide was then added to cover the cells (approximately 3 mL) and the cells were retuned to the 37° C. humidified CO2 incubator until compound incubation was completed. The media was then aspirated from the cells, 0.2 mL of the compound solution was added and the cells re-incubated at 37° C. for 30 minutes. The plates were then placed on ice, the compound solution was aspirated from each well, and the cells washed once with 1 mL of cold PBS. Cells were then fixed with 500 μL of 3.7% formaldehyde in PBS (“fix solution”) for 20 minutes at room temperature. The fix solution was decanted and the cells permeabilized by 4× washing with 500 uL PBS/0.1% Triton X-100. After the final permeabilization wash, the cells were treated with 500 uL of Odyssey blocking buffer (OBB) and incubated at room temperature with shaking for 90 minutes.
The OBB was decanted and then to each well was then added 125 μL each of mouse anti-IkB CST#4814 (diluted 1:200 in OBB) and rabbit anti-beta-tubulin CST#2146 (diluted 1:200 in OBB). Plates were sealed with parafin and incubated overnight at room temperature with shaking.
On day 3, the antibody solution was removed from the cells and the cells were washed 5× with 0.5 mL PBST for five minutes each on a shaker. To each well was then aded 125 μL of a secondary antibody solution containing goat anti-mouse IgG-IRDye 800 and goat anti-rabbit IgG-IRDye (each diluted 1:500 in OBB+0.2% Tween 20). The plates were covered with aluminum foil and incubated for 1 hour at room temperature with shaking. The secondary antibody solution was removed and the cells washed 3× with 0.5 mL PBST for five minutes each on a shaker. Cells were then scanned by LICOR with the following settings: 700 intensity=6.0, 800 intensity=6.5; microplate2 settings with 3.0 mm offset; 169 resolution. LICOR values were fitted to an equation for a sigmoidal curve and IC50 values calculated from the fitted parameters. […] Blank cells indicate that the compound was not tested at that concentration. Certain compounds that were tested more than once and the values reflect the average of the multiple tests.

[3] = read-out: Activity (IC50, inhibition of TNFα binding to TNFα R1/Fc)
[4] = 5 μM compound, HeLa or A431 cells
[5] = 10 μM compound, HeLa or A431 cells
[6] = Activity (IC50, inhibition of TNFα binding to TNFα R1/Fc)

Compound | IC50 [1, 3] | inhibition at 5 µM [2, 4] | inhibition at 10 µM [2, 5] | IC50 [1, 6] | inhibition at 5 µM [2] | inhibition at 10 µM [2]
O=C1CCNC(=O)c2ccc(cc2)C[C@@H](C(=O)O)NC(=O)[C@@H](Cc2ccccc2)NC(=O)[C@H](Cc2ccc(-c3ccccc3)cc2)NC(=O)[C@@H](CCc2ccccc2)N1 [Compound 248] ([βAla][d(hPhe)][Bip][dF][Phe(4-COOH)]-OH; lactam N-5) | < 10 µM | < 10% | 10 to 50% |  |  | 
O=C(O)[C@H](Cc1ccccc1)NC(=O)[C@@H]1Cc2ccc(cc2)NC(=O)[C@H](O)[C@@H](O)C(=O)N[C@H](Cc2ccc(F)c(F)c2)C(=O)N[C@@H](Cc2ccc(-c3ccccc3)cc2)C(=O)N[C@H](Cc2ccccc2)C(=O)N1 [Compound 282] | < 10 µM | 50 to 80% | 10 to 50% |  |  | 
O=C(O)[C@@H]1Cc2ccc(cc2)NC(=O)[C@H](O)[C@@H](O)C(=O)N[C@H](Cc2cccs2)C(=O)N[C@@H](Cc2ccc(-c3ccccc3)cc2)C(=O)N[C@H](CCc2ccccc2)C(=O)N1 [Compound 289] | < 10 µM | < 10% | < 10% |  |  | 
O=C(O)[C@@H]1Cc2ccc(cc2)NC(=O)[C@H](O)[C@@H](O)C(=O)N[C@H](Cc2cccs2)C(=O)N[C@@H](Cc2ccc(-c3ccccc3)cc2)C(=O)N[C@@H](CCc2ccccc2)C(=O)N1 [Compound 290] | < 10 µM | < 10% | < 10% |  |  | 
CC(C)(NC(=O)[C@@H]1Cc2ccc(cc2)OCC(=O)N[C@H](Cc2cccs2)C(=O)N[C@@H](Cc2ccc(-c3ccccc3)cc2)C(=O)N[C@H](CCc2ccccc2)C(=O)N1)C(=O)O [Compound 297] | < 10 µM | < 10% | < 10% |  |  | 
O=C(O)CCCNC(=O)[C@@H]1Cc2ccc(cc2)OCC(=O)N[C@H](Cc2cccs2)C(=O)N[C@@H](Cc2ccc(-c3ccccc3)cc2)C(=O)N[C@H](CCc2ccccc2)C(=O)N1 [Compound 298] | < 10 µM | < 10% | < 10% |  |  | 
O=C1COc2ccc(cc2)C[C@@H](C(=O)NC2(C(=O)O)CC2)NC(=O)[C@@H](CCc2ccccc2)NC(=O)[C@H](Cc2ccc(-c3ccccc3)cc2)NC(=O)[C@@H](Cc2cccs2)N1 [Compound 299] |  |  |  | < 10 µM | < 10% | < 10%
O=C1COc2ccc(cc2)C[C@@H](C(=O)N[C@@H](Cc2ccc(O)cc2)C(=O)O)NC(=O)[C@@H](CCc2ccccc2)NC(=O)[C@H](Cc2ccc(-c3ccccc3)cc2)NC(=O)[C@@H](Cc2cccs2)N1 [Compound 300] |  |  |  | < 10 µM |  | 10 to 50%
O=C(O)CCNC(=O)[C@@H]1Cc2ccc(cc2)OCC(=O)N[C@H](Cc2cccs2)C(=O)N[C@@H](Cc2ccc(-c3ccccc3)cc2)C(=O)N[C@H](CCc2ccccc2)C(=O)N1 [Compound 301] | < 10 µM | < 10% | < 10% |  |  | 
C[C@H](NC(=O)[C@@H]1Cc2ccc(cc2)OCC(=O)N[C@H](Cc2cccs2)C(=O)N[C@@H](Cc2ccc(-c3ccccc3)cc2)C(=O)N[C@H](CCc2ccccc2)C(=O)N1)C(=O)O [Compound 302] | < 10 µM | 10 to 50% | 10 to 50% |  |  | 
C[C@@H](NC(=O)[C@@H]1Cc2ccc(cc2)OCC(=O)N[C@H](Cc2cccs2)C(=O)N[C@@H](Cc2ccc(-c3ccccc3)cc2)C(=O)N[C@H](CCc2ccccc2)C(=O)N1)C(=O)O [Compound 305] | < 10 µM |  | < 10% |  |  | 
CC[C@H](C)[C@H](NC(=O)[C@@H]1Cc2ccc(cc2)OCC(=O)N[C@H](Cc2cccs2)C(=O)N[C@@H](Cc2ccc(-c3ccccc3)cc2)C(=O)N[C@H](CCc2ccccc2)C(=O)N1)C(=O)O [Compound 307] | < 10 µM |  | < 10% |  |  | 
O=C(O)[C@@H]1Cc2ccc(cc2)NC(=O)[C@H](O)[C@@H](O)C(=O)N[C@H](Cc2ccccc2)C(=O)N[C@@H](Cc2ccc(-c3ccccc3)cc2)C(=O)N[C@H](Cc2ccccc2)C(=O)N1 [Compound 313] | < 10 µM | < 10% | 10 to 50% |  |  | 
O=C(O)[C@@H]1Cc2ccc(cc2)NC(=O)[C@H](O)[C@@H](O)C(=O)N[C@H](Cc2ccsc2)C(=O)N[C@@H](Cc2ccc(-c3ccccc3)cc2)C(=O)N[C@H](Cc2ccccc2)C(=O)N1 [Compound 318] | < 10 µM | < 10% | 10 to 50% |  |  | 
O=C(O)CCNC(=O)[C@@H]1Cc2ccc(cc2)OCC(=O)N[C@@H](Cc2cccs2)C(=O)N[C@H](Cc2ccc(-c3ccccc3)cc2)C(=O)N[C@@H](Cc2ccccc2)C(=O)N1 [Compound 319] | < 10 µM | < 10% | < 10% |  |  | 
O=C1COc2ccc(cc2)C[C@@H](C(=O)N[C@@H](CCc2ccccc2)C(=O)O)NC(=O)[C@@H](CCc2ccccc2)NC(=O)[C@H](Cc2ccc(-c3ccccc3)cc2)NC(=O)[C@@H](Cc2cccs2)N1 [Compound 320] |  |  |  | < 10 µM | 10 to 50% | > 80%
O=C(O)CNC(=O)[C@@H]1Cc2ccc(cc2)OCC(=O)N[C@H](Cc2cccs2)C(=O)N[C@@H](Cc2ccc(-c3ccccc3)cc2)C(=O)N[C@H](CCc2ccccc2)C(=O)N1 [Compound 321] | < 10 µM | < 10% | 10 to 50% |  |  | 
O=C(O)CN(Cc1ccccc1)C(=O)[C@@H]1Cc2ccc(cc2)OCC(=O)N[C@H](Cc2cccs2)C(=O)N[C@@H](Cc2ccc(-c3ccccc3)cc2)C(=O)N[C@H](CCc2ccccc2)C(=O)N1 [Compound 323] |  |  |  | < 10 µM | 10 to 50% | 10 to 50%
O=C1COc2ccc(cc2)C[C@@H](C(=O)N[C@H](Cc2ccccc2)C(=O)O)NC(=O)[C@@H](CCc2ccccc2)NC(=O)[C@H](Cc2ccc(-c3ccccc3)cc2)NC(=O)[C@@H](Cc2cccs2)N1 [Compound 324] |  |  |  | < 10 µM | 10 to 50% | 10 to 50%
COC(=O)[C@H](CC(=O)O)NC(=O)[C@@H]1Cc2ccc(cc2)OCC(=O)N[C@H](Cc2cccs2)C(=O)N[C@@H](Cc2ccc(-c3ccccc3)cc2)C(=O)N[C@H](CCc2ccccc2)C(=O)N1 [Compound 325] | < 10 µM |  | < 10% |  |  | 
C[C@H](NC(=O)[C@@H]1Cc2ccc(cc2)OCC(=O)N[C@@H](Cc2cccs2)C(=O)N[C@@H](Cc2ccc(-c3ccccc3)cc2)C(=O)N[C@@H](Cc2ccccc2)C(=O)N1)C(=O)O [Compound 326] | < 10 µM | 10 to 50% | 10 to 50% |  |  | 
